{
  "source": "patent US11225469B2",
  "about": "“Inhibitors of phosphoglycerate dehydrogenase (PHGDH) and uses thereof” (Whitehead Institute for Biomedical Research, priority 2015, dated 2022)",
  "key": {"[1]": {"system": "PHGDH-dependent cell lines (MDA-MB-468, BT-20, HCC70, HT1080, and MT-3)", "test": "Cytotoxicity (Cell Titer-Glo), PHGDH-dependent cell lines", "assay_type": "cell-based", "details": "Homo sapiens", "method": "Knockdown of PHGDH is selectively toxic towards PHGDH-dependent cell lines, and minimally toxic towards PHGDH-independent cell lines. […] Cell count was determined by quantitating the amount of ATP present with CellTitreGlo® measurements 96 hours after dosage.\nCells were seeded in white 96-well plates (Greiner) at a density of 2000 cells/well (MDA-MB-468, BT-20, MT-3) or 1000 cells/well (all other cell lines) and allowed to attach for 24 hours. Compounds were prepared in DMSO and dispensed using an HP D300 compound dispenser. Cell viability was assessed with Cell Titer-Glo (Promega) at four days following treatment and luminescence measured with a SpectraMax M5 Plate Reader (Molecular Devices). Luminescence was normalized to an untreated control in identical medium. For rescue experiments, RPMI was supplemented with 40 μM adenosine, uridine, guanosine, cytidine, deoxyadenosine, thymidine, deoxyguanosine, and deoxycytidine and the medium was replaced daily."}, "[2]": {"system": "panel of other dehydrogenases", "test": "Panel of other dehydrogenases", "assay_type": "biochemical"}, "GPD1": {"target": "GPD1 (Homo sapiens (Human), UniProt P21695)", "sequence (P21695 whole entry)": "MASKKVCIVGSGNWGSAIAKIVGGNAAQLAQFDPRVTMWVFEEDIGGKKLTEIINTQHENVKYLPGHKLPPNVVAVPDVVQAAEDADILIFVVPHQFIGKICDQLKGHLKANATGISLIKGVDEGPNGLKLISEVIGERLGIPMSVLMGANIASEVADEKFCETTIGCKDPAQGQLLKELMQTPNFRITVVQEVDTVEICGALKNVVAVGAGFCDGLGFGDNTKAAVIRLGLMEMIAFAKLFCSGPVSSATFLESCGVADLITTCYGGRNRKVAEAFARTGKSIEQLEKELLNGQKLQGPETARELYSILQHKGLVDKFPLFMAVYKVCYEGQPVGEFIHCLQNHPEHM", "test": "Counter-screen against GPD1", "assay_type": "biochemical", "details": "Table E11", "method": "GAPDH substrate buffer contained 210 mM Tris pH 7.4, 2.5 mM NaH2PO4 pH 7.4, 2 mM DL-Glyceraldehyde 3-phosphate, 1.75 mM MgCl2, 0.01 mM NAD+, 0.11 mM resazurin, 0.2 mg/mL BSA, and 0.01% Tween-20. GAPDH enzyme buffer contained 50 mM Tris pH 7.4, 100 mM NaCl, 0.02 mM TCEP, 0.01 mM EDTA, 0.1 mg/mL BSA, 0.42 mg/mL diaphorase, and 2.5 nM GAPDH. The GAPDH, GPD1, and GPD1L assays were run in 384-well plates using the same protocol and readout as the PHGDH assay. […] GPD1 enzyme buffer contained 50 mM Tris pH 7.4, 100 mM NaCl, 0.08 mM TCEP, 0.4 mg/mL BSA, 0.03 μM EDTA, and 0.8 nM GPD1. 70 μL of substrate buffer were mixed with 10 μL enzyme buffer. GPD1L substrate buffer contained 200 mM Tris pH 7.4, 0.05 mM sn-G3-P, 2 mM MgCl2, 0.04 mM NAD+, 0.11 mM resazurin, 0.1 mg/mL BSA, and 0.02% Tween-20. GPD1L enzyme buffer contained 50 mM Tris pH 7.4, 100 mM NaCl, 0.02 mM TCEP, 0.42 mg/mL diaphorase, 0.1 mg/mL BSA, 0.008 μM EDTA, and 16 nM GPD1L. 40 μL of substrate buffer were mixed with 40 μL of enzyme buffer.\nThe GAPDH and GPD1L assays were read using the same protocol as the PHGDH assay. The GPD1 assay was read using loss of NADH fluorescence (λex=340 nm and λem=460 nm)."}, "panel of 168 GPCRs": {"system": "panel of 168 GPCRs", "test": "Cross-reactivity in a panel of 168 GPCRs"}, "PHGDH [3]": {"target": "T1, PHGDH (Homo sapiens (Human), UniProt O43175)", "T1 sequence (O43175 whole entry)": "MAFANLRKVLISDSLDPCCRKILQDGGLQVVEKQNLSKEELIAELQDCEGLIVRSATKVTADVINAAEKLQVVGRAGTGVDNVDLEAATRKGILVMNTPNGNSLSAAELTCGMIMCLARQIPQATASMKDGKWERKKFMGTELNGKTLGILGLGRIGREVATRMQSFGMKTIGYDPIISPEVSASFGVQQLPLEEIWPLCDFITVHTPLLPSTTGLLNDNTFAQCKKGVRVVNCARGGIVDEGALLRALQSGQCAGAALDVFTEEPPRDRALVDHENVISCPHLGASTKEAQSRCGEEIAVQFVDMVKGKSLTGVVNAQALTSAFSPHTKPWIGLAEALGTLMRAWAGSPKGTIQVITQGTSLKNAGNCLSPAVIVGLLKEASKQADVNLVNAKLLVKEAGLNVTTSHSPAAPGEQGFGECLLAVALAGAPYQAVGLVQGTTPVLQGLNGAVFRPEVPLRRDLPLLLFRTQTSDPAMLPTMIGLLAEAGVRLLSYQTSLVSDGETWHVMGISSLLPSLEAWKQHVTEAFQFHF", "test": "Inhibitor kinetics: competition against substrates and dilution experiments", "assay_type": "biochemical", "details": "Lineweaver-Burk", "excerpt": "(§1) Destabilization has been previously observed in the specific binding of small molecules to their protein targets (see, e.g., Hamiaux, C. et al. “DAD2 is an α/β hydrolase likely to be involved in the perception of the plant branching hormone, strigolactone.” Curr Biol 22, 2032-2036 (2012))."}, "C234S PHGDH": {"target": "C234S PHGDH (Homo sapiens (Human), UniProt O43175, C234S)", "sequence (O43175 whole entry C234S)": "as the sequence (O43175 whole entry) above, with C234S counted along it", "test": "Inhibition of C234S mutant PHGDH in vitro", "assay_type": "biochemical", "details": "C234S vs wild type PHGDH"}, "Solubility": {"test": "Solubility", "assay_type": "physicochemical"}, "PHGDH [4]": {"target": "T1, PHGDH", "test": "Differential scanning fluorimetry", "assay_type": "binding", "method": "as §1\nDifferential scanning fluorimetry assays were carried out in 20 mM TEA pH 8, 100 mM NaCl, 1× SYPRO Orange (Sigma), 2 μM PHGDH in a volume of 10 μL. Unfolding was monitored using a LightCycler 480 II real-time PCR instrument (λex=465 nm and λem=580 nm) over a linear 20 to 85° C. gradient. Plots of the first derivative of fluorescence vs. temperature were generated in LightCycler software."}, "MDA-MB-468 tumors": {"system": "MDA-MB-468 tumors", "test": "U-13C-glucose infusion in mice bearing MDA-MB-468 tumors (target engagement)", "assay_type": "in vivo, mouse", "method": "Thus, the PHGDH inhibitors described herein engage PHGDH in tumors and recapitulate the selective toxicity of PHGDH knockdown in vivo.\nChronic catheters were surgically implanted into the jugular veins of normal or tumor bearing animals 3-4 days prior to infusions. Animals were fasted for 6 hours (morning fast) and infusions were performed in free-moving, conscious animals at 1:00 pm for all studies to minimize metabolic changes associated with circadian rhythm. […] Animals were terminally anesthetized with sodium pentobarbital and all tissues were fully harvested in less than 5 minutes to preserve the metabolic state. Tumors and adjacent lung tissue were carefully dissected and rapidly frozen using a BioSqueezer (BioSpec Products) to ensure rapid quenching of metabolism throughout the tissue section. Tissues were stored at −80 C and extracted with 80:20 (v/v) methanol:water in the same manner as cells prior to LCMS analysis."}},
  "note": "pEC50, pIC50: −log10 of the molar value.",
  "data": [
    {"smiles": "Cc1cc(C)nc(NC(=S)N2CCN(Cc3ccc(C(F)(F)F)cc3)CC2)c1", "note": "[Compound 267, N-(4,6-dimethylpyridin-2-yl)-4-(4-(trifluoromethyl)benzyl)piperazine-1-carbothioamide]", "values": [
      {"measurement": "pEC50", "setting": "[1]", "value": "4.80 to 5.10"},
      {"measurement": "activity against a panel of other dehydrogenases", "setting": "[2]", "value": "inactive"},
      {"measurement": "pIC50", "setting": "GPD1", "value": "≤ 4.00"},
      {"measurement": "cross-reactivity, modulation of activity", "setting": "panel of 168 GPCRs", "value": "< 30", "unit": "%"},
      {"measurement": "type of inhibition with respect to 3-PG", "setting": "PHGDH [3]", "value": "mixed-mode inhibition"},
      {"measurement": "type of inhibition with respect to NAD+", "setting": "PHGDH [3]", "value": "non-competitive inhibition"},
      {"measurement": "reduction of potency of PHGDH inhibition by C234S mutation", "setting": "C234S PHGDH", "value": "approximately 3 fold"},
      {"measurement": "aqueous solubility", "setting": "Solubility", "value": "reasonable aqueous solubility"},
      {"measurement": "Tm of PHGDH", "setting": "PHGDH [4]", "value": "decreased"},
      {"measurement": "production of glucose-derived serine in tumors", "setting": "MDA-MB-468 tumors", "value": "decreased production"}
    ]}
  ]
}
